US11535630B2, “Apelin receptor (APJ) agonists and uses thereof” (Research Triangle Institute, priority 2015, dated 2022)
Structures can show the parent of a compound that is named as a salt.

Molecular target: T1, apelin receptor (APJ) (Homo sapiens, UniProt P35414)
T1 sequence (P35414 1-380): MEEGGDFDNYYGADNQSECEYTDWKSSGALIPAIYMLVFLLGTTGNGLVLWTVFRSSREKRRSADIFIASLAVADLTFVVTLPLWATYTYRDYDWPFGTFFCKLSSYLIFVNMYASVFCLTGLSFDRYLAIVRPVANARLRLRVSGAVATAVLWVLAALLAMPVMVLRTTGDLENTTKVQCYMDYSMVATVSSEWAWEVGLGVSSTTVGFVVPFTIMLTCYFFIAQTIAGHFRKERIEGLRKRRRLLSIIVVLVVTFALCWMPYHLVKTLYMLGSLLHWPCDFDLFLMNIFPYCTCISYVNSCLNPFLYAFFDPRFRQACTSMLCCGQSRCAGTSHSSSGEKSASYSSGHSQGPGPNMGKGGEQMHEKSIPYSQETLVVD
Assay: In vitro apelin agonist activity (methods of Giddings et al., Apelin-13 as positive control)
Type: cell-based
Settings: in vitro apelin agonist activity, methods of Giddings et al., Apelin-13 as positive control; read-out: EC50 (nM) Ave
Description: Characterization of the Apelin Agonist Activity of the Compounds
1:39-47, the contents of which are hereby incorporated by reference in its entirety. Using the methods described in Giddings et al. and Apelin-13 as a positive control.

EC50 [nM] | SMILES
664 | COc1cccc(OC)c1-c1cc(C(=O)N[C@@H](/C=C/c2cccnc2)CC(=O)NC2CCC2)nn1C1CCCC1 [compound 418, (3R,4E)-N-cyclobutyl-3-{[1-cyclopentyl-5-(2,6-dimethoxyphenyl)-1H-pyrazol-3-yl]formamido}-5-(pyridin-3-yl)pent-4-enamide]
2910 | COc1cccc(OC)c1-c1cc(C(=O)N[C@@H](CCc2ccccc2)CC(=O)O)nn1-c1ccc(F)cc1 [compound 299, (3S)-3-{[5-(2,6-dimethoxyphenyl)-1-(4-fluorophenyl)-1H-pyrazol-3-yl]formamido}-5-phenylpentanoic acid]
140 | CC(C)c1ccccc1-c1cc(C(=O)N[C@@H](CCN2CCCCC2)CC(=O)NC2CCC2)nn1C1CCCC1 [compound 397, (3S)-N-cyclobutyl-3-({1-cyclopentyl-5-[2-(propan-2-yl)phenyl]-1H-pyrazol-3-yl}formamido)-5-(piperidin-1-yl)pentanamide]
23 | O=C(C[C@H](CCN1CCCC(F)(F)C1)NC(=O)c1cc(-c2cnccc2C(F)(F)F)n(C2CCCC2)n1)NC1CCC1 [compound 460, (3S)-N-cyclobutyl-3-(f 1-cyclopentyl-544-(trifluoromethyppyridin-3-yl1-1H-pyrazol-3-yl}formamido)-5-(3,3-difluoropiperidin-1-yl)pentanamide]
21 | CC(c1nnn[nH]1)[C@H](CCN1CC2C(C1)C2(F)F)NC(=O)c1cc(-c2ccccc2C(F)(F)F)n(C2CCCC2)n1 (stereo partly drawn) [compound 637, 1-cyclopentyl-N-[(3S)-1-{6,6-difluoro-3-azabicyclo[3.1.0]hexan-3-yl}-4-(1H-1,2,3,4-tetrazol-5-yl)pentan-3-yl]-5-[2-(trifluoromethyl)phenyl]-1H-pyrazole-3-carboxamide]
2370 | CCN(C(=O)c1cc(-c2ccccc2OC(F)(F)F)n(C2CCCC2)n1)[C@@H](CCN1CCCCC1)CC(=O)NC1CCC1 [compound 344, (3S)-N-cyclobutyl-3-(1-{1-cyclopentyl-5-[2-(trifluoromethoxy)phenyl]-1H-pyrazol-3-yl}-N-ethylformamido)-5-(piperidin-1-yl)pentanamide]
12 | COc1cccc(OC)c1-c1cc(C(=O)N[C@@H](CCN2CCCCC2)CC(=O)Nc2nccs2)nn1C1CCCC1 [compound 338, (3S)-3-{[1-cyclopentyl-5-(2,6-dimethoxyphenyl)-1H-pyrazol-3-yl]formamido}-5-(piperidin-1-yl)-N-(1,3-thiazol-2-yl)pentanamide]
24 | C[C@H](C[C@@H](CC(=O)O)NC(=O)c1cc(-c2ccccc2C(C)(F)F)n(C2CCCC2)n1)N1C[C@@H](F)[C@H](F)C1 (mixture of isomers) [compound 599, (3S,5R)-3-({1-cyclopentyl-5-[2-(1,1-difluoroethyl)phenyl]-1H-pyrazol-3-yl}formamido)-5-[trans-3,4-difluoropyrrolidin-1-yl]hexanoic acid]
4250 | COCCN(C)C(=O)[C@H](COc1ccccc1)NC(=O)c1cc(-c2ccccc2C(F)(F)F)n(C2CCCC2)n1 [compound 570, (2S)-2-({1-cyclopentyl-5-[2-(trifluoromethyl)phenyl]-1H-pyrazol-3-yl}formamido)-N-(2-methoxyethyl)-N-methyl-3-phenoxypropanamide]
1170 | CN(C(=O)[C@@H](CC(=O)O)NC(=O)c1cc(-c2ccccc2C(F)(F)F)n(C2CCCC2)n1)C1CCCCC1 [compound 558, (3R)-3-[cyclohexyl(methyl)carbamoyl]-3-({1-cyclopentyl-5-[2-(trifluoromethyl)phenyl]-1H-pyrazol-3-yl}formamido)propanoic acid]
> 10 | O=C(O)C[C@H](CCN1CCCC(F)(F)C1)NC(=O)c1cc(-c2c(Cl)cccc2C(F)(F)F)n(C2CCCC2)n1 [compound 556, (3S)-3-({-[2-chloro-6-(trifluoromethyl)phenyl]-1-cyclopentyl-1H-pyrazol-3-yl}formamido)-5-(3,3-difluoropiperidin-1-yl)pentanoic acid]
47 | O=C(C[C@H](CC(=O)N1CCCC(F)(F)C1)NC(=O)c1cc(-c2ccccc2C(F)(F)F)n(C2CCCC2)n1)NC1CCC1 [compound 515, (3R)-N-cyclobutyl-3-({1-cyclopentyl-5-[2-(trifluoromethyl)phenyl]-1H-pyrazol-3-yl}formamido)-5-(3,3-difluoropiperidin-1-yl)-5-oxopentanamide]
133 | O=C(C[C@H](CCN1CCCC(F)(F)C1)NC(=O)c1cc(-c2cccnc2Cl)n(C2CCCC2)n1)NC1CCC1 [compound 469, (3S)-3-{[5-(2-chloropyridin-3-yl)-1-cyclopentyl-1H-pyrazol-3-yl]formamido}-N-cyclobutyl-5-(3,3-difluoropiperidin-1-yl)pentanamide]
1060 | O=C(O)C[C@H](CC(=O)N1CCCC(F)(F)C1)NC(=O)c1cc(-c2ccccc2C(F)(F)F)n(C2CCCC2)n1 [compound 509, (3S)-3-({1-cyclopentyl-5-[2-(trifluoromethyl)phenyl]-1H-pyrazol-3-yl}formamido)-5-(3,3-difluoropiperidin-1-yl)-5-oxopentanoic acid]
1040 | NNC(=O)C[C@H](CCc1ccc(F)cc1)NC(=O)c1cc(-c2ccccc2C(F)(F)F)n(C2CCCC2)n1 [compound 464]
215 | O=C(O)C[C@H](CCN1C[C@@H](F)[C@@H](F)C1)NC(=O)c1cc(-c2ccccc2C(F)(F)F)n(C2CCCC2)n1 [compound 581, (3S)-3-({1-cyclopentyl-5-[2-(trifluoromethyl)phenyl]-1H-pyrazol-3-yl}formamido)-5-[(3R,4S)-3,4-difluoropyrrolidin-1-yl]pentanoic acid]
27 | CN(C(=O)C[C@H](CCN1CCCC(F)(F)C1)NC(=O)c1cc(-c2ccccc2C(F)(F)F)n(C2CCCC2)n1)c1ncco1 [compound 451, (3S)-3-({1-cyclopentyl-5-[2-(trifluoromethyl)phenyl]-1H-pyrazol-3-yl}formamido)-5-(3,3-difluoropiperidin-1-yl)-N-methyl-N-(1,3-oxazol-2-yl)pentanamide]
32 | O=C(C[C@H](CCN1CC(F)(F)C1)NC(=O)c1cc(-c2ccccc2C(F)(F)F)n(C2CCCC2)n1)NC1CCC1 [compound 535, (3S)-N-cyclobutyl-3-({1-cyclopentyl-5-[2-(trifluoromethyl)phenyl]-1H-pyrazol-3-yl}formamido)-5-(3,3-difluoroazetidin-1-yl)pentanamide]
11 | C[C@@H]1CC(F)(F)CN1CC[C@@H](CC(=O)O)NC(=O)c1cc(-c2ccccc2C(C)(F)F)n(C2CCCC2)n1 [compound 605, (3S)-3-({1-cyclopentyl-5-[2-(1,1-difluoroethyl)phenyl]-1H-pyrazol-3-yl]formamido)-5-[(2R)-4,4-difluoro-2-methylpyrrolidin-1-yl]pentanoic acid]
14 | CN(CC[C@@H](CC(=O)NC1CCC1)NC(=O)c1cc(-c2ccccc2C(F)(F)F)n(C2CCCC2)n1)C1CCCCC1 [compound 483]
79 | CC(F)(F)c1ccccc1-c1cc(C(=O)N[C@@H](CCN2CCC[C@@H](F)C2)CC(=O)O)nn1C1CCCC1 [compound 593, (3S)-3-({1-cyclopentyl-5-[2-(1,1-difluoroethyl)phenyl]-1H-pyrazol-3-yl}formamido)-5-[(3R)-3-fluoropiperidin-1-yl]pentanoic acid]
46 | O=C(O)C[C@H](CCN1CC2C(C1)C2(F)F)NC(=O)c1cc(-c2ccccc2C(F)(F)F)n(C2CCCC2)n1 (stereo partly drawn) [compound 603, (3S)-3-({1-cyclopentyl-5-[2-(trifluoromethyl)phenyl]-1H-pyrazol-3-yl}formamido)-5-{6,6-difluoro-3-azabicyclo[3.1.0]hexan-3-yl}pentanoic acid]
290 | C#Cc1ccccc1-c1cc(C(=O)N[C@@H](CCN2CCCCC2)CC(=O)NC2CCC2)nn1C1CCCC1 [compound 438, (3S)-N-cyclobutyl-3-{[1-cyclopentyl-5-(2-ethynylphenyl)-1H-pyrazol-3-yl]formamido}-5-(piperidin-1-yl)pentanamide]
42 | CCc1ccccc1-c1cc(C(=O)N[C@@H](CCN2CCCCC2)CC(=O)O)nn1C1CCCC1 [compound 403, (3S)-3-{[1-cyclopentyl-5-(2-ethylphenyl)-1H-pyrazol-3-yl]formamido}-5-(piperidin-1-yl)pentanoic acid hydrochloride]
30 | O=C(N[C@@H](CCN1CCCC(F)(F)C1)Cc1nnc[nH]1)c1cc(-c2ccccc2Cl)n(C2CCCC2)n1 [compound 450, 5-(2-chlorophenyl)-1-cyclopentyl-N-[(2S)-4-(3,3-difluoropiperidin-1-yl)-1-(4H-1,2,4-triazol-3-yl)butan-2-yl]-1H-pyrazole-3-carboxamide]
13 | CC(C(=O)O)[C@H](CCN1CC2C(C1)C2(F)F)NC(=O)c1cc(-c2ccccc2C(F)(F)F)n(C2CCCC2)n1 (stereo partly drawn) [compound 635, (2R,3S)-3-({1-cyclopentyl-5-[2-(trifluoromethyl)phenyl]-1H-pyrazol-3-yl}formamido)-5-{6,6-difluoro-3-azabicyclo[13.1.0]hexan-3-yl}-2-methylpentanoic acid]

SMILES | EC50 [nM]
O=C(O)C[C@H](CCN1C2CCC1CC(F)(F)C2)NC(=O)c1cc(-c2ccccc2C(F)(F)F)n(C2CCCC2)n1 [compound 602, (3S)-3-({1-cyclopentyl-5-[2-(trifluoromethyl)phenyl]-1H-pyrazol-3-yl}formamido)-5-{3,3-difluoro-8-azabicyclo[3.2.1]octan-8-yl}pentanoic acid] | 346
